“Also recorded” adds a separate entry of the source.
Key:
[1] = test system: Ras; assay: [α-32P]-GTP binding to small G protein Ras; settings: data not shown
Description: (§1) Competition of these drugs with GTP for the active site of 4 small G proteins (Rab3A, Ras, Arf2, RalA) was also tested.

[2] = test system: Swiss 3T3 cells; assay: Texas Red-transferrin uptake in Swiss 3T3 cells; format: cell-based; settings: drug added 15 or 60 minutes before Tf-TxR
Description: Transferrin (Tf) uptake was analysed in Swiss 3T3 and HER14 cells based on methods previously described (van der Bliek et al., 1993). Briefly, cells were plated to 60% confluency in DMEM medium plus 10% foetal calf serum after which the cells were incubated overnight (8-10 hours) in DMEM minus foetal calf serum. Texas red-transferrin (Tf-TxR, Molecular Probes, Oregon) was added to a final concentration of 5 μg/ml and the cells incubated at 37° C. for 10 minutes. Cell surface staining was removed by incubating the cells in an ice cold acid wash solution (0.2 M acetic acid +0.5 M NaCl, pH 2.8) for 15 minutes. Cells were immediately fixed with 4% paraformaldehyde for 10 minutes then washed 3 times with PBS. Nuclei were stained using DAPI (Molecular Probes, Oregon). Slides were mounted using DABCO and the fluorescence was monitored using a Leica DMLB bright field microscope and SPOT digital camera.

[3] = test system: isolated nerve terminals (synaptosomes); assay: Synaptic vesicle endocytosis, FM2-10 uptake in synaptosomes; format: cell-based, rat; settings: 100 μM, synaptosomes
Description: Isolated nerve terminals (synaptosomes) were prepared from rat cerebral cortex by centrifugation on discontinuous percoll gradients (Dunkley et al., 1986). Fractions 3 and 4 were pooled and used in all experiments. Endocytosis was measured using uptake of the fluorescent dye FM2-10 as previously described (Cousin and Robinson 2000a). Synaptosomes (0.6 mg in 2 ml) were incubated for 5 min at 37° C. in plus or minus Ca^2+ Krebs-like solution. FM2-10 ([…]) was added 1 min before stimulation with 30 mM KCl (S1). As FM2-10 is taken up by vesicles via endocytosis at the S1 phase of stimulation, synaptosomes were incubated with antagonists during this phase. […] After 2 min of stimulation synaptosomes were washed twice in plus Ca^2+ solution containing 1 mg/ml bovine serum albumin. The washing steps remove non-internalised FM2-10 and the tyrphostins. Washed synaptosomes were resuspended in plus Ca^2+ solution at 37° C., transferred to a fluorimeter cuvette and stimulated with a standard addition of 30 mM KCl (S2). The standard S2 stimulation releases all accumulated FM2-10 and allows endocytosis to be measured as the decrease in FM2-10 fluorescence due to dye release into solution (excitation 488 nm, emission 540 nm).
Endocytosis was calculated as the decrease in absolute fluorescence stimulated by 30 mM KCl at S2. […] Retrieval efficiency is a more accurate measure of endocytosis since it takes into account the amount of prior exocytosis. Retrieval efficiency was calculated as endocytosis/exocytosis, where endocytosis is defined as above and exocytosis as Ca^2+-dependent glutamate release after 2 min of stimulation. The retrieval efficiency value was normalised to a ratio of 1.0 for 30 mM KCl.

[4] = target: T1, Rab3A (Homo sapiens, UniProt P20336); assay: [α-32P]-GTP binding to small G protein Rab3A; settings: data not shown
T1 sequence (P20336 1-220): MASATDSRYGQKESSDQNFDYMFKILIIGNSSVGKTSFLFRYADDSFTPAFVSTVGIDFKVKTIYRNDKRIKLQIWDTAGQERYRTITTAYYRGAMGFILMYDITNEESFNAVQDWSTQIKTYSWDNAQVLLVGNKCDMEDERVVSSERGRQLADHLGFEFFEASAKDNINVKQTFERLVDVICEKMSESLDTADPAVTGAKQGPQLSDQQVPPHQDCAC
Description: as §1

[5] = test system: isolated rat brain nerve terminals (synaptosomes); assay: Electron microscopy of synaptosomes; format: cell-based; settings: 100 μM
Description: Synaptosomes were incubated for 5 min in Krebs-like solution containing 1.2 mM Ca^2+ then stimulated with 30 mM KCl for 2 minutes. […] After stimulation, synaptosomes were pelleted in a microfuge for 1 minute at room temperature then fixed by gentle resuspension in ice-cold phosphate buffered saline supplemented with 5% glutaraldehyde. After 1 hr they were centrifuged at low speed (2500 rpm) for 5 min at room temperature to loosely pellet the synaptosomes. The pellets were washed gently 3 times with MOPs buffer with low spins (2500 rpm) for 7 minutes then gently resuspended in a 10% bourine serum albumin (BSA) in water and allowed to stand for 20 min at room temperature. The synaptosomes were then centrifuged again for 7 minutes at low speed (2500 rpm), overlaid with Karnovsky's fixative and incubated at 4° C. overnight. The pellets were subsequently rinsed and fixed in a buffered solution of osmium tetroxide for 3 hours. Synaptosomes were then rinsed and stained for 1 hour in 2% aqueous uranyl acetate prior to being dried by a series of sequential 10 minute washes: 50% ethanol plus 0.1% NaCl, 70% ethanol plus 0.1% NaCl, 95% ethanol plus 0.1% NaCl, 100% ethanol plus 0.1% NaCl twice and 100% acetone twice. […]

[6] = target: T2, dynamin I (Ovis aries, UniProt A0ACI6NZN1); assay: [α-32P]-GTP binding assay, dynamin I; set-up: species or system sheep
Description: The [α-^32P]-GTP-binding assay was performed in the wells of a 96-well microtitre plate. Dynamin (0.2 μg/well) was added to GTPase buffer and incubated for 10 min at 4 C in the dark. [α-^32P]-GTP (2 μCi/tube) was then added to the reaction and incubated for a further 10 min at 4 C. in the dark. The microtitre plate was then irradiated with a short wavelength ultraviolet lamp at […] for 30 min at a distance of 8 cm. The specificity of photolabelling was determined by comparing the labelling in the presence and absence of 1 mM cold GTP. Samples were then applied to nitrocellulose membranes by aspiration through the wells of a 24 well slot blotter. The nitrocellulose was washed 3 times with PBS and dried. Bound nucleotide was detected by a phosphorimager (Molecular Dynamics).

[7] = target: T2, dynamin I; assay: Phospholipid binding and helix assembly (sedimentation assay); settings: 10 or 100 μM, PS liposomes

T2 sequence (A0ACI6NZN1 entry or part of it): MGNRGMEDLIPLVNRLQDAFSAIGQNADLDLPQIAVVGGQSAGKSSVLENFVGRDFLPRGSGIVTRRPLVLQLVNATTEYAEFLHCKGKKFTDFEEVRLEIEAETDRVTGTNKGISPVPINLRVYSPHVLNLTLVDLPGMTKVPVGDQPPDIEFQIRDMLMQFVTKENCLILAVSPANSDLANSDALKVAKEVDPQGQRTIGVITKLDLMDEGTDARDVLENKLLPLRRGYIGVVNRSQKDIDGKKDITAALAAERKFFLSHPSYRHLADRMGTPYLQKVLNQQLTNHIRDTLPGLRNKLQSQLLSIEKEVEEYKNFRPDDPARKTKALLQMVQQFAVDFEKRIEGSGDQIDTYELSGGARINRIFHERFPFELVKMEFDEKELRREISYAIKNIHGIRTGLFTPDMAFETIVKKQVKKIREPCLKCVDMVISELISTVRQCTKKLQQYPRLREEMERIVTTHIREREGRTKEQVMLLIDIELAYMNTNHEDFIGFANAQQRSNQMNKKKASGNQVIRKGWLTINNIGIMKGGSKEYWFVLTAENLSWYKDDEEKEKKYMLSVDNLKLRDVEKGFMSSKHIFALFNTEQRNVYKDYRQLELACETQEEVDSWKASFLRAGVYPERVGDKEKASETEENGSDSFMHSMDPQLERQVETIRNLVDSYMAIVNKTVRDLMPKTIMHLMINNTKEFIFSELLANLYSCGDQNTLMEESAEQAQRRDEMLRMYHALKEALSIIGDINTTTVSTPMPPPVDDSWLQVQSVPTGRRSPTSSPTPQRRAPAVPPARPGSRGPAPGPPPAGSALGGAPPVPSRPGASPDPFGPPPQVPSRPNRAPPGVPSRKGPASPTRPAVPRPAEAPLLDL

`N#C/C(=C\c1ccc(O)c(O)c1)C(=O)NCCCNC(=O)/C(C#N)=C/c1ccc(O)c(O)c1` [bis-tyrphostin] was tested, and the “effect on [α-32P]-GTP binding to Ras” value [1] was “neither drug affected”, the “internalisation of texas-red labelled transferrin into Swiss 3T3 cells” value [2] was “very large decrease in transferrin staining; also recorded: inhibited” and the “inhibition of synaptic vesicle endocytosis (SVE)” value [3] was “specifically decreases endocytosis”. The “inhibition of synaptic vesicle endocytosis (SVE)” value ([3]; listed as Bis-tyrphostin) was “significantly inhibited”, the “effect on [α-32P]-GTP binding to Rab3A” value [4] was “neither drug affected” and the “morphology of depolarised synaptosomes” value ([5]; depolarised with KCl) was “massive depletion of synaptic vesicles”. The “morphology of unstimulated synaptosomes” value ([5]; unstimulated) was “no effect on their morphology”, the “[α-32P]-GTP binding to dynamin I in the presence of drug” value [6] was “not seen to decrease; also recorded: not affected” and the “phospholipid binding and dynamin helix assembly” value [7] was “completely unaffected; also recorded: does not block dynamin binding to lipid”.
